Patent publication US12440476B2, “Agents that target telomerase reverse transcriptase (TERT) for treating cancer and sensitizing cancer cells to genotoxic therapy” (Northwestern University, priority 2022, dated 2025)

Tests used:
[1] = system: CD8+ T cells; test: In vitro T cell priming assay (CFSE dilution); type: cell-based, mouse; details: DCs stimulated by inhibitor treated and irradiated (10 Gy) CT26 cells; 5 days; NU-1 1 μM, MST 2 μM
Description: To evaluate effects of TERT on tumor immunogenicity, CT26 cells were seeded at […] per well in 12-well plates, allowed to attach overnight, and then treated with DMSO, NU-1 (1 μM), or MST-312 (2 μM) for 1 h, followed by 0 or 10 Gy. 5 days after IR, the media were removed, cells washed with PBS, and fresh immune cell culture medium added. CT26 cells were then cultured overnight, followed by coculturing with immature BMDCs for 12-16 h at a 1:2 ratio. After coculture, the suspension BMDCs were collected into round bottom FACS tubes, washed with PBS, and stained with Zombie yellow (1:1000, BioLegend) for 10 min at room temperature. […] After PBS washing, cells were resuspended in 300 μL Cell Staining Buffer and analyzed using a BD Fortessa 4-15 HTS Flow cytometer within 2 hours. Data were then analyzed by FlowJo software. […]
Splenocytes isolated from CT26 immunized mice were stained with 0.5 μM carboxyfluorescein succinimidyl ester (CFSE) (Thermo Fisher Scientific, Cat #C34554) for 10 min at room temperature (Quah et al., 2007). […] Cells were analyzed using a BD Fortessa 4-15 HTS flow cytometer and FlowJo software. […]

[2] = system: CT26 cells; test: Senescence-associated beta-galactosidase (SA-β-Gal) assay; type: cell-based, mouse; details: non-toxic doses, 10 Gy, 5 days
Description: MCF7, Saos-2, or CT26 cells were seeded at 3×10^4 per well in 6-well plates and allowed to attach to plate overnight. For TERT inhibition, MCF7 cells were treated with DMSO vehicle, NU-2 (0.5 μM), NU-1 (0.5 μM), chrolactomycin (0.5 μM), BIBR 1532 (10 μM), or MST-312 (1 μM) for 1 h prior to IR, Saos-2 cells were treated with DMSO vehicle, NU-2 (1 μM), NU-1 (1 μM), chrolactomycin (1 μM), BIBR 1532 (20 μM), or MST-312 (1 μM) for 1 h prior to IR, and CT26 cells were treated with MSO vehicle, NU-2 (1 μM), NU-1 (1 μM), chrolactomycin (1 μM), BIBR 1532 (20 μM), or MST-312 (2 μM) for 1 h prior to IR. Then MCF7 and Saos-2 cells were irradiated with 0 or 6 Gy and CT26 cells with 0 or 10 Gy. After IR, MCF7 and Saos-2 cells were continuously cultured for 7 days and CT26 for 5 days, then fixed in 2% PFA and stained with staining buffer (1 mg/ml X-Gal (Golden Bio), 40 mM citric acid/sodium phosphate, 150 mM NaCl, 2 mM MgCl2, 3.3 mM K3[Fe(CN)6], 3.3 mM K4[Fe(CN)6], pH=6) for 16 h at 37° C., then washed with warm PBS three times and imaged in PBS within a week. Images were captured on a Zeiss Axiovert 200M microscope with a 20× Plan-NeoFluar objective and Axiocam digital camera. SA-β-Gal-positive and -negative cells were counted in more than 5 fields, yielding an average percentage indicated on each SA-β-Gal image as mean±SD. Three replicates were performed.
To examine the roles for STING, CT26 cells were seeded at 2×10^4 per well in 12-well plates and allowed to attach overnight. STING inhibitor C178 (0 or 4 μM) was added, followed by the addition of DMSO vehicle, NU-1 (1 μM), MST-312 (2 μM) or chrolactomycin (1 μM) for 1 h prior to 0 or 10 Gy. CT26 cells were cultured for 5 days, surviving cells were washed twice in PBS and cultured in fresh immune cell culture medium overnight. The CT26 cells were then cocultured with BMDCs for 12-16 h at a 1:2 ratio, and BMDCs were collected and analyzed after coculturing, as described above.

C=C1C(=O)[C@](C)(C(=O)OC)[C@H](CCc2cn(Cc3ccc(F)cc3F)nn2)O[C@@H]1C [NU-1]
Proliferating CD8+ T cells [1]: 33.5% | Senescence induction by IR [2]: enhanced senescence induction by IR
